# Assay results reported in patent publication US20150276755A1, “METHODS FOR DETERMINING RESISTANCE AGAINST MOLECULES TARGETING PROTEINS” (AGENCY FOR SCIENCE, TECHNOLOGY AND RESEARCH, priority 2012, published 2015).
# “Also recorded” adds a separate entry of the source.
# Key:
# [1] = molecular target: purified HDM2 (amino acids 1-125) P20L (human) (UniProt Q00987); test: competitive fluorescence anisotropy against FAM-12-1 peptide, apparent Kd
# [2] = molecular target: purified HDM2 (amino acids 1-125) M62A (human) (UniProt Q00987); test: as above
# Sequence of purified HDM2 (amino acids 1-125) M62A (human) (Q00987 1-125 M62A limits assumed): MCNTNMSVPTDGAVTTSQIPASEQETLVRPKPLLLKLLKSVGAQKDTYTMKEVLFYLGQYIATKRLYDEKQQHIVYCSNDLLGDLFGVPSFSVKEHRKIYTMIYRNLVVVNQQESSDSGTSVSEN
# [3] = molecular target: purified HDM2 (amino acids 1-125), wild-type (human) (UniProt Q00987); test: as above
# Sequence of purified HDM2 (amino acids 1-125), wild-type (human) (Q00987 1-125 limits assumed): as the sequence (Q00987 1-125 M62A limits assumed) above, with A62M counted along it
# [4] = molecular target: purified HDM2 (amino acids 1-125) Q24R (human) (UniProt Q00987); test: as above
# Sequence of purified HDM2 (amino acids 1-125) Q24R (human) (Q00987 1-125 Q24R limits assumed): as the sequence (Q00987 1-125 M62A limits assumed) above, with Q24R, A62M counted along it
# [5] = molecular target: T1, wild-type HDM2-p53 interaction (Homo sapiens, UniProt Q00987); test: In vitro pull-down (co-immunoprecipitation, Western blot), wild-type HDM2; assay type: biochemical; conditions: 10 μM
# T1 construct: made in house; host or cells: cell-free in vitro transcription-translation (IVT)
# T1 sequence (Q00987 whole entry): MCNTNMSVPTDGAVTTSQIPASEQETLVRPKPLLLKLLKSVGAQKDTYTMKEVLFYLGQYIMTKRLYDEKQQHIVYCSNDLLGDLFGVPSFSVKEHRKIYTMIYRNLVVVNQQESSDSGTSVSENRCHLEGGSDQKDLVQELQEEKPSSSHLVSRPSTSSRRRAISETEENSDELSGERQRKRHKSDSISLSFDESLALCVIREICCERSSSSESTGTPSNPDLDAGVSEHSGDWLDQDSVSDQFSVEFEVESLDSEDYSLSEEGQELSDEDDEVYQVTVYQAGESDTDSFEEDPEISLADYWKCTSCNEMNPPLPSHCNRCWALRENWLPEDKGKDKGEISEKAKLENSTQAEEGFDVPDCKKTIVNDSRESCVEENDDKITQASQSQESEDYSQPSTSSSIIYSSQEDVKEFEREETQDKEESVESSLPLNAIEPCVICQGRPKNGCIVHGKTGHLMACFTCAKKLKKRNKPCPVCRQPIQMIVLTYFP
# Protocol: (§1) Protein G beads were incubated with anti-HA (1 μg per 10 μL beads) for 1 hour in PEST-3% BSA and subsequently washed twice in PBST-0.1% BSA. IVT-expressed protein was incubated with the beads on a rotator for 30 mins. […] IVT-containing secondary protein was added to the mixture and incubation allowed for 1 hour. Beads were finally washed thrice in PBST-0.1% BSA and thrice with PBS, and bound proteins eluted by resuspension in 20 μL SDS-PAGE loading buffer and incubation at 95° C. for 5 minutes. Where required, blank IVT extract (no template DNA added) was used as control. The eluates were subjected to electrophoresis, transferred to nitrocellulose membranes and probed for p53 with horseradish peroxidise conjugated DO1 antibody (Santa Cruz) or for HDM2 with anti-HA antibody followed by rabbit anti-mouse (Dakocytomation).
# (§2) Protein G beads (Invitrogen) were incubated with anti-HA (1 μg per 10 μL beads) for 1 hour in PBST-3% BSA and subsequently washed twice in PBST-0.1% BSA. IVT expressed wild-type or mutant HDM2 was incubated with the beads on a rotator for 30 mins. […] IVT-expressed p53 was added to the mixture and incubation allowed for 1 hour. Beads were finally washed thrice in PBST-0.1% BSA and thrice with PBS, and bound proteins eluted by resuspension in 20 μL SDS-PAGE loading buffer and incubation at 95° C. for 5 minutes. […]
# [6] = molecular target: T2, HDM2 Q24R-p53 interaction (Homo sapiens, UniProt Q00987, Q24R); test: In vitro pull-down (co-immunoprecipitation, Western blot), HDM2 Q24R; assay type: biochemical; conditions: 10 μM
# T2 construct: made in house; host or cells: cell-free in vitro transcription-translation (IVT)
# T2 sequence (Q00987 whole entry Q24R): as the sequence (Q00987 whole entry) above, with Q24R counted along it
# Protocol: as §1, §2
# wild-type HDM2 = molecular target: T3, wild-type HDM2 (Homo sapiens, UniProt Q00987); test: p53 reporter assay in p53/HDM2-null DKO cells, wild-type HDM2; assay type: cell-based; conditions: 20 μM
# T3 construct: expressed in transfected cells; host or cells: H1299 p53-/- cells (A5); mouse embryonic fibroblast p53/Mdm2 double-knockout (DKO) cells (A7)
# T3 sequence (Q00987 whole entry): as the sequence (Q00987 whole entry) above
# Protocol: (§3) DKO (p53/HDM2 null) cells were maintained in Dulbecco's modified Eagle's medium (DMEM) with 10% foetal calf serum (FCS) and 1% penicillin/streptomycin. The cells were seeded at 1.0×10^5 cells/well in 6-well plates, 24 hours prior to transfection. […] In all cases, the total amount of plasmid DNA transfected per well was equilibrated by addition of the parental vector pcDNA3.1a(+).
# (§4) DKO cells were harvested 24 hours after transfection and […] activities were assessed using the Dual-light System (Applied Biosystems) according to the manufacturer's protocol. The β-galactosidase activity was normalized with luciferase activity for each sample. To check for expression levels of relevant proteins via Western blot, 2.5 μg of the cell lysates were subjected to electrophoresis, transferred to nitrocellulose membranes and probed for p53 with horseradish peroxidise conjugated DO1 antibody, for HDM2 and actin with anti-HA antibody and AC15 antibody respectively followed by rabbit anti-mouse.
# (§5) Mouse embryonic fibroblast p53/Mdm2 double-knockout (DKO) cells (a kind gift from Guillermina Lozano) and H1299 p53^−/− cells were maintained in Dulbecco's modified Eagle's medium (DMEM) with 10% (v/v) foetal calf serum (FCS) and 1% (v/v) penicillin/streptomycin. The cells were seeded at 1.0×10^5 cells/well in 6-well plates, 24 hours prior to transfection. […]
# HDM2 M62A = molecular target: T4, HDM2 M62A (Homo sapiens, UniProt Q00987, M62A); test: p53 reporter assay in p53/HDM2-null DKO cells, HDM2 M62A; assay type: cell-based; conditions: 20 μM
# T4 construct: expressed in transfected cells; host or cells: DKO mouse embryonic fibroblasts (A12); HCT116 p53+/+ (A28)
# T4 sequence (Q00987 whole entry M62A): as the sequence (Q00987 whole entry) above, with M62A counted along it
# Protocol: as §3, §4, §5
# [7] = molecular target: T5, HDM2 M62A-p53 interaction (Homo sapiens, UniProt Q00987, M62A); test: In vitro pull-down (co-immunoprecipitation, Western blot), HDM2 M62A; assay type: biochemical; conditions: 10 μM
# T5 construct: made in house; host or cells: cell-free in vitro transcription-translation (IVT)
# T5 sequence (Q00987 whole entry M62A): as the sequence (Q00987 whole entry) above, with M62A counted along it
# Protocol: as §1, §2
# Sequence of purified HDM2 (amino acids 1-125) P20L (human) (Q00987 1-125 P20L limits assumed): as the sequence (Q00987 1-125 M62A limits assumed) above, with P20L, A62M counted along it
Kd [1] [nM],Kd [2] [nM],Kd [3] [nM],Kd [4] [nM],effect on p53 binding to immobilised HDM2 (Western blot) [5],"p53 activity restored, of that seen in absence of HDM2 co-transfection (wild-type HDM2) [%]","p53 activity restored, of that seen in absence of HDM2 co-transfection (HDM2 M62A) [%]",Molecule,effect on p53 binding to immobilised HDM2 (Western blot) [6],effect on p53 binding to immobilised HDM2 (Western blot) [7]
17.2,29.6,13.9,10.4,,,,p53 peptide,,
,,,,showed inhibition of p53 binding,51,47,CC(=O)N[C@H](C(=O)N[C@@H](CO)C(=O)N[C@@H](Cc1ccccc1)C(=O)N[C@]1(C)CCCCCCC=CCCC[C@@](C)(C(N)=O)NC(=O)[C@H](CC(C)C)NC(=O)[C@H](CC(C)C)NC(=O)[C@H](C)NC(=O)[C@H](Cc2c[nH]c3cc(Cl)ccc23)NC(=O)[C@H](Cc2ccc(O)cc2)NC(=O)[C@H](CCC(=O)O)NC1=O)[C@@H](C)O [MO11],showed inhibition of p53 binding; also recorded: abrogate the mutant HDM2-p53 interaction as efficiently as Nutlin inhibits the wildtype HDM2-p53 interaction,showed inhibition of p53 binding; also recorded: abrogate the mutant HDM2-p53 interaction as efficiently as Nutlin inhibits the wildtype HDM2-p53 interaction
